Results reported in ChEMBL document CHEMBL4680317, “In vitro and in vivo effects of inhibitors on actin and myosin” (Bioorg Med Chem, 2021).
Active and inactive are the calls of the source. The calls are words filed in the database; no cut-off is given here.

Tests used:
Oryctolagus cuniculus [1] = organism: Oryctolagus cuniculus; test: Inhibition of rabbit muscle G-actin polymerization assessed as polymerized G-actin level at 25 uM incubated for 15 mins by spectrophotometric analysis (reference value: 100 %); format: tissue-based; parameters: scale not given: the % may be the effect or the level left; details: Muscle tissue
[2] = molecular target: Myosin light chain kinase 2, skeletal/cardiac muscle (Oryctolagus cuniculus) (UniProt P07313); test: Inhibition of rabbit skeletal muscle myosin-2 ATPase incubated for 20 mins followed by ATP addition and measured after 20 mins; format: tissue-based; details: Skeletal muscle tissue, time 40.0 min
Chain of Myosin light chain kinase 2, skeletal/cardiac muscle (Oryctolagus cuniculus) (P07313 whole entry): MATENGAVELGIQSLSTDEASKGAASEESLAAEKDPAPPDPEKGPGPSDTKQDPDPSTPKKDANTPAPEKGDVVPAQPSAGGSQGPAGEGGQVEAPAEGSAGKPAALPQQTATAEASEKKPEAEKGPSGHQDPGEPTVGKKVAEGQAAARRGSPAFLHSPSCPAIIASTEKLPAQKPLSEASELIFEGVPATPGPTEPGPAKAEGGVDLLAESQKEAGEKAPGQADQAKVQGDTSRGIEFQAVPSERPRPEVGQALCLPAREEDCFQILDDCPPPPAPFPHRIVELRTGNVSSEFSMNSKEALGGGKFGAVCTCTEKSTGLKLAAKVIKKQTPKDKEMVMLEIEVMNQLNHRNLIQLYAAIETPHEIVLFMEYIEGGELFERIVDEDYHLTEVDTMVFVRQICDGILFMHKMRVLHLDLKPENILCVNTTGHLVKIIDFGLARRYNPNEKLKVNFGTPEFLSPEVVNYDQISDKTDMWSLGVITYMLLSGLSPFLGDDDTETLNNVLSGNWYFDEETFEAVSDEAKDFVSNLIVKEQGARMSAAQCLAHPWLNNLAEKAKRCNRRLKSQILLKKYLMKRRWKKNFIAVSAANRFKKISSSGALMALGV

MDA-MB-231 [3] = test: Antimigratory activity against human MDA-MB-231 cells assessed as cell migration at 2.5 uM by light microscopy relative to control; format: functional
MDA-MB-231 [4] = test: Antimigratory activity against human MDA-MB-231 cells assessed as minimum effective concentration by light microscopy; format: functional
MDA-MB-231 [5] = test: Cytotoxicity against human MDA-MB-231 cells assessed as reduction in cell viability incubated for 4 hrs by neutral red uptake assay; format: cell-based; details: mda-mb-231, 4 h
[6] = Cardiotoxicity in medaka embryo post hatching 24 hrs assessed as reduction in heart beat at 1.25 uM measured after 1 hr; format: toxicity; details: oryzias latipes
MDA-MB-231 [7] = test: Antimigratory activity against human MDA-MB-231 cells assessed as cell migration by light microscopy; format: functional, cell-based
MDA-MB-231 [8] = test: Induction of cell morphological changes in human MDA-MB-231 cells assessed as membrane blebbing by inverted microscopy; format: functional, cell-based
Oryctolagus cuniculus [9] = organism: Oryctolagus cuniculus; test: Inhibition of rabbit muscle F-actin depolymerization at 50 to 100 uM incubated for 15 mins by spectrophotometric analysis; format: tissue-based; details: Muscle tissue, dose 50-100 µM
MDA-MB-231 [10] = test: Induction of cell morphological changes in human MDA-MB-231 cells assessed as membrane blebbing at 2 uM measured after 30 mins by inverted microscopy; format: functional, cell-based
MDA-MB-231 [11] = test: Antimigratory activity against human MDA-MB-231 cells assessed as cell migration at 5 uM by light microscopy relative to control; format: functional
[12] = Cardiotoxicity in medaka embryo post hatching 24 hrs assessed as reduction in heart beat at 10 uM measured after 1 hr; format: toxicity; details: oryzias latipes
[13] = Cardiotoxicity in medaka embryo post hatching 24 hrs assessed as reduction in heart beat at 17.5 uM measured after 1 hr; format: toxicity; details: oryzias latipes
Oryctolagus cuniculus [14] = organism: Oryctolagus cuniculus; test: Inhibition of rabbit muscle F-actin depolymerization incubated for 15 mins by spectrophotometric analysis; format: tissue-based; details: Muscle tissue, dose 25-100 µM
[15] = Cardiotoxicity in medaka embryo post hatching 24 hrs assessed as reduction in heart beat at 25 uM measured after 1 hr; format: toxicity; details: oryzias latipes
MDA-MB-231 [16] = test: Induction of cell morphological changes in human MDA-MB-231 cells assessed as membrane blebbing at 500 nM measured after 40 sec by inverted microscopy; format: functional, cell-based
MDA-MB-231 [17] = test: Antimigratory activity against human MDA-MB-231 cells assessed as cell migration at 10 uM by light microscopy relative to control; format: functional

| SMILES | Activity (Oryctolagus cuniculus [1]) [%] | inhibition [2] | Activity (MDA-MB-231 [3]) | LED (MDA-MB-231 [4]) [µM] | Activity (MDA-MB-231 [5]) | Activity [6] | inhibition (MDA-MB-231 [7]) | Activity (MDA-MB-231 [8]) | inhibition (Oryctolagus cuniculus [9]) | Activity (MDA-MB-231 [10]) | Activity (MDA-MB-231 [11]) [%] | Activity [12] | Activity [13] | inhibition (Oryctolagus cuniculus [14]) | Activity [15] | Activity (MDA-MB-231 [16]) | Activity (MDA-MB-231 [17]) [%] |
| --- | --- | --- | --- | --- | --- | --- | --- | --- | --- | --- | --- | --- | --- | --- | --- | --- | --- |
| Oc1c(Cl)cc(Cl)cc1-c1[nH]c(Cl)c(Cl)c1Cl [PENTACHLOROPSEUDILIN] | 38.4 | Dose-dependent effect | 62.6% | 1 | Toxic | Toxic | Dose-dependent effect | – | – | – | – | – | – | – | – | – | – |
| Oc1c(Br)cc(Br)cc1-c1[nH]c(Br)c(Br)c1Br [PENTABROMOPSEUDILIN] | 104 | – | 67% | 1 | Toxic | Toxic | Dose-dependent effect | inactive | – | – | – | – | – | – | – | – | – |
| Cc1ccc2c(c1)C(=O)[C@]1(O)CCN(c3ccccc3)C1=N2 | 78.7 | – | – | 5 | – | – | – | – | Active | inactive | 136.6 | Toxic | Non-Toxic | – | – | – | – |
| O=c1c(O)c(-c2ccc(O)cc2)oc2cc(O)cc(O)c12 [KAEMPFEROL] | 71.8 | – | 70% | 2.5 | – | – | – | inactive | – | – | – | – | – | Dose-dependent effect | Non-Toxic | – | – |
| C=C1[C@@H](C)[C@H]2[C@H](Cc3ccccc3)NC(=O)[C@]23OC(=O)/C=C/[C@H](O)CCC[C@@H](C)C/C=C/[C@H]3[C@@H]1O [CYTOCHALASIN B] | 43.5 | – | – | – | Toxic | – | – | – | Active | – | – | Non-Toxic | – | – | – | Active | 8.2 |
| Oc1cc(O)c2c(c1)O[C@H](c1cc(O)c(O)c(O)c1)[C@H](O)C2 [EPIGALLOCATECHIN] | 118 | – | inactive | – | – | – | – | inactive | – | – | – | – | – | – | Non-Toxic | – | – |
| O=c1c(O)c(-c2ccc(O)c(O)c2)oc2cc(O)cc(O)c12 [QUERCETIN] | 74.5 | – | inactive | – | – | – | – | inactive | – | – | – | – | – | Dose-dependent effect | Non-Toxic | – | – |
